This note sets out measurements from patent US12699067B2, “Electrochemical biosensor and the manufacturing method thereof” (China Medical University, priority 2023, dated 2026).

The test system of the experiment is human non-small cell lung cancer cell line (A549 cell line). Description: Detection of heat shock protein (Hsp70) released from paclitaxel-treated A549 cells with the Hsp70 electrochemical immunosensor. Type of experiment: cell-based. The conditions noted are these: A549 cell line treated with 0, 75, 100 μM Paclitaxel; culture solution as control; FIG. 12. From the text:
It was known that the expression of heat shock protein (Hsp70) was highly correlated with the growth of cancer cells. The present invention further uses Hsp70 electrochemical immunosensor (BSA/antiHsp70/EN-LC/Au@MnO2/MoO3) to detect heat shock protein (Hsp70) in human non-small cell lung cancer cell line (A549 cell line).
Therefore, the Hsp70 electrochemical immunosensor provided by the present invention could be used for detecting heat shock protein (Hsp70).

Take `CC(=O)O[C@H]1C(=O)[C@@]2(C)[C@H]([C@H](OC(=O)c3ccccc3)[C@]3(O)C[C@H](OC(=O)[C@H](O)[C@@H](NC(=O)c4ccccc4)c4ccccc4)C(C)=C1C3(C)C)[C@]1(OC(C)=O)CO[C@@H]1C[C@@H]2O` [paclitaxel, Paclitaxel]: the “curve (the radius) of Hsp70 electrochemical immunosensor, indicating bound heat shock protein (Hsp70) released by the cells” value is on record as “increased”.
